From patent US8192962B2, “Processes for detecting toxic substances” (Daikin Industries, Ltd., priority 2001, dated 2012)

Tested on: Stress protein genes
Assay: DNA chip mRNA expression in yeast, stress protein genes (Table 6)
Format: cell-based, Saccharomyces cerevisiae S288C
Procedure, shortened: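 Whole-genome yeast DNA chip hybridization (65° C., >12 h) of Cy-labeled cDNA from S288C cells exposed 2 h at 25° C. to a sub-lethal toxicant dose in YPD; value is intensity relative to chemical-free control.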

CCCCCCCCCCCCOS(=O)(=O)[O-].[Na+] [(18), sodium lauryl sulfate]
The level of expressed mRNA in the presence of chemical substance/The level of expressed mRNA in the absence of chemical substance (yeast gene YAL005C): 0.5
The level of expressed mRNA in the presence of chemical substance/The level of expressed mRNA in the absence of chemical substance (yeast gene YAL015C): 1.2
The level of expressed mRNA in the presence of chemical substance/The level of expressed mRNA in the absence of chemical substance (yeast gene YBL075C): 0.7
The level of expressed mRNA in the presence of chemical substance/The level of expressed mRNA in the absence of chemical substance (yeast gene YBL093C): 1.3
The level of expressed mRNA in the presence of chemical substance/The level of expressed mRNA in the absence of chemical substance (yeast gene YBR044C): 1.3
The level of expressed mRNA in the presence of chemical substance/The level of expressed mRNA in the absence of chemical substance (yeast gene YBR054W): 0.7
The level of expressed mRNA in the presence of chemical substance/The level of expressed mRNA in the absence of chemical substance (yeast gene YBR067C): 0.4
The level of expressed mRNA in the presence of chemical substance/The level of expressed mRNA in the absence of chemical substance (yeast gene YBR072W): 2.2
The level of expressed mRNA in the presence of chemical substance/The level of expressed mRNA in the absence of chemical substance (yeast gene YBR126C): 1.3
The level of expressed mRNA in the presence of chemical substance/The level of expressed mRNA in the absence of chemical substance (yeast gene YBR169C): 1.6
The level of expressed mRNA in the presence of chemical substance/The level of expressed mRNA in the absence of chemical substance (yeast gene YCL035C): 4.2
The level of expressed mRNA in the presence of chemical substance/The level of expressed mRNA in the absence of chemical substance (yeast gene YCR021C): 0.8
The level of expressed mRNA in the presence of chemical substance/The level of expressed mRNA in the absence of chemical substance (yeast gene YCR060W): 1.7
The level of expressed mRNA in the presence of chemical substance/The level of expressed mRNA in the absence of chemical substance (yeast gene YCR083W): 1.3
The level of expressed mRNA in the presence of chemical substance/The level of expressed mRNA in the absence of chemical substance (yeast gene YDL022W): 1.4
The level of expressed mRNA in the presence of chemical substance/The level of expressed mRNA in the absence of chemical substance (yeast gene YDL025C): 1.4
The level of expressed mRNA in the presence of chemical substance/The level of expressed mRNA in the absence of chemical substance (yeast gene YDR033W): 1.0
The level of expressed mRNA in the presence of chemical substance/The level of expressed mRNA in the absence of chemical substance (yeast gene YDR077W): 1.1
The level of expressed mRNA in the presence of chemical substance/The level of expressed mRNA in the absence of chemical substance (yeast gene YDR098C): 1.2
The level of expressed mRNA in the presence of chemical substance/The level of expressed mRNA in the absence of chemical substance (yeast gene YDR155C): 2.5
The level of expressed mRNA in the presence of chemical substance/The level of expressed mRNA in the absence of chemical substance (yeast gene YDR258C): 1.3
The level of expressed mRNA in the presence of chemical substance/The level of expressed mRNA in the absence of chemical substance (yeast gene YDR293C): 1.3
The level of expressed mRNA in the presence of chemical substance/The level of expressed mRNA in the absence of chemical substance (yeast gene YDR436W): 1.2
The level of expressed mRNA in the presence of chemical substance/The level of expressed mRNA in the absence of chemical substance (yeast gene YDR513W): 3.2
The level of expressed mRNA in the presence of chemical substance/The level of expressed mRNA in the absence of chemical substance (yeast gene YDR519W): 2.4
The level of expressed mRNA in the presence of chemical substance/The level of expressed mRNA in the absence of chemical substance (yeast gene YEL030W): 0.6
The level of expressed mRNA in the presence of chemical substance/The level of expressed mRNA in the absence of chemical substance (yeast gene YEL039C): 1.1
The level of expressed mRNA in the presence of chemical substance/The level of expressed mRNA in the absence of chemical substance (yeast gene YER042W): 1.1
The level of expressed mRNA in the presence of chemical substance/The level of expressed mRNA in the absence of chemical substance (yeast gene YER057C): 1.8
The level of expressed mRNA in the presence of chemical substance/The level of expressed mRNA in the absence of chemical substance (yeast gene YER103W): 0.6
The level of expressed mRNA in the presence of chemical substance/The level of expressed mRNA in the absence of chemical substance (yeast gene YER125W): 1.0
The level of expressed mRNA in the presence of chemical substance/The level of expressed mRNA in the absence of chemical substance (yeast gene YFL014W): 8.8
The level of expressed mRNA in the presence of chemical substance/The level of expressed mRNA in the absence of chemical substance (yeast gene YFL016C): 0.9
The level of expressed mRNA in the presence of chemical substance/The level of expressed mRNA in the absence of chemical substance (yeast gene YFL020C): 0.9
The level of expressed mRNA in the presence of chemical substance/The level of expressed mRNA in the absence of chemical substance (yeast gene YFR052W): 1.9
The level of expressed mRNA in the presence of chemical substance/The level of expressed mRNA in the absence of chemical substance (yeast gene YGL073W): 1.2
The level of expressed mRNA in the presence of chemical substance/The level of expressed mRNA in the absence of chemical substance (yeast gene YGL115W): 1.2
The level of expressed mRNA in the presence of chemical substance/The level of expressed mRNA in the absence of chemical substance (yeast gene YGL181W): 1.3
The level of expressed mRNA in the presence of chemical substance/The level of expressed mRNA in the absence of chemical substance (yeast gene YGR088W): 2.0
The level of expressed mRNA in the presence of chemical substance/The level of expressed mRNA in the absence of chemical substance (yeast gene YHL028W): 2.5
The level of expressed mRNA in the presence of chemical substance/The level of expressed mRNA in the absence of chemical substance (yeast gene YHL046C): 0.9
The level of expressed mRNA in the presence of chemical substance/The level of expressed mRNA in the absence of chemical substance (yeast gene YHR030C): 1.8
The level of expressed mRNA in the presence of chemical substance/The level of expressed mRNA in the absence of chemical substance (yeast gene YHR057C): 1.3
The level of expressed mRNA in the presence of chemical substance/The level of expressed mRNA in the absence of chemical substance (yeast gene YHR104W): 1.9
The level of expressed mRNA in the presence of chemical substance/The level of expressed mRNA in the absence of chemical substance (yeast gene YIL011W): 0.8
The level of expressed mRNA in the presence of chemical substance/The level of expressed mRNA in the absence of chemical substance (yeast gene YIL033C): 1.2
The level of expressed mRNA in the presence of chemical substance/The level of expressed mRNA in the absence of chemical substance (yeast gene YIR037W): 2.9
The level of expressed mRNA in the presence of chemical substance/The level of expressed mRNA in the absence of chemical substance (yeast gene YIR038C): 2.0
The level of expressed mRNA in the presence of chemical substance/The level of expressed mRNA in the absence of chemical substance (yeast gene YJL128C): 1.0
The level of expressed mRNA in the presence of chemical substance/The level of expressed mRNA in the absence of chemical substance (yeast gene YJL158C): 1.4
The level of expressed mRNA in the presence of chemical substance/The level of expressed mRNA in the absence of chemical substance (yeast gene YJL159W): 0.9
The level of expressed mRNA in the presence of chemical substance/The level of expressed mRNA in the absence of chemical substance (yeast gene YJL165C): 1.8
The level of expressed mRNA in the presence of chemical substance/The level of expressed mRNA in the absence of chemical substance (yeast gene YJR045C): 0.9
The level of expressed mRNA in the presence of chemical substance/The level of expressed mRNA in the absence of chemical substance (yeast gene YJR090C): 1.0
The level of expressed mRNA in the presence of chemical substance/The level of expressed mRNA in the absence of chemical substance (yeast gene YKL161C): 1.9
The level of expressed mRNA in the presence of chemical substance/The level of expressed mRNA in the absence of chemical substance (yeast gene YKL163W): 1.0
The level of expressed mRNA in the presence of chemical substance/The level of expressed mRNA in the absence of chemical substance (yeast gene YKL164C): 0.8
The level of expressed mRNA in the presence of chemical substance/The level of expressed mRNA in the absence of chemical substance (yeast gene YKL210W): 1.1
The level of expressed mRNA in the presence of chemical substance/The level of expressed mRNA in the absence of chemical substance (yeast gene YKR053C): 2.4
The level of expressed mRNA in the presence of chemical substance/The level of expressed mRNA in the absence of chemical substance (yeast gene YLL024C): 0.6
The level of expressed mRNA in the presence of chemical substance/The level of expressed mRNA in the absence of chemical substance (yeast gene YLL026W): 2.5
The level of expressed mRNA in the presence of chemical substance/The level of expressed mRNA in the absence of chemical substance (yeast gene YLL039C): 2.1
The level of expressed mRNA in the presence of chemical substance/The level of expressed mRNA in the absence of chemical substance (yeast gene YLL060C): 2.3
The level of expressed mRNA in the presence of chemical substance/The level of expressed mRNA in the absence of chemical substance (yeast gene YLR006C): 1.0
The level of expressed mRNA in the presence of chemical substance/The level of expressed mRNA in the absence of chemical substance (yeast gene YLR109W): 1.2
The level of expressed mRNA in the presence of chemical substance/The level of expressed mRNA in the absence of chemical substance (yeast gene YLR259C): 1.0
The level of expressed mRNA in the presence of chemical substance/The level of expressed mRNA in the absence of chemical substance (yeast gene YML007W): 1.4
The level of expressed mRNA in the presence of chemical substance/The level of expressed mRNA in the absence of chemical substance (yeast gene YML070W): 1.3
The level of expressed mRNA in the presence of chemical substance/The level of expressed mRNA in the absence of chemical substance (yeast gene YMR021C): 3.4
The level of expressed mRNA in the presence of chemical substance/The level of expressed mRNA in the absence of chemical substance (yeast gene YMR173W): 1.8
The level of expressed mRNA in the presence of chemical substance/The level of expressed mRNA in the absence of chemical substance (yeast gene YMR186W): 1.1
The level of expressed mRNA in the presence of chemical substance/The level of expressed mRNA in the absence of chemical substance (yeast gene YNL064C): 0.7
The level of expressed mRNA in the presence of chemical substance/The level of expressed mRNA in the absence of chemical substance (yeast gene YNL160W): 1.0
The level of expressed mRNA in the presence of chemical substance/The level of expressed mRNA in the absence of chemical substance (yeast gene YNL241C): 1.0
The level of expressed mRNA in the presence of chemical substance/The level of expressed mRNA in the absence of chemical substance (yeast gene YNR076W): 0.8
The level of expressed mRNA in the presence of chemical substance/The level of expressed mRNA in the absence of chemical substance (yeast gene YOL064C): 1.3
The level of expressed mRNA in the presence of chemical substance/The level of expressed mRNA in the absence of chemical substance (yeast gene YOL161C): 1.0
The level of expressed mRNA in the presence of chemical substance/The level of expressed mRNA in the absence of chemical substance (yeast gene YOR008C): 1.3
The level of expressed mRNA in the presence of chemical substance/The level of expressed mRNA in the absence of chemical substance (yeast gene YOR009W): 0.8
The level of expressed mRNA in the presence of chemical substance/The level of expressed mRNA in the absence of chemical substance (yeast gene YOR010C): 0.6
The level of expressed mRNA in the presence of chemical substance/The level of expressed mRNA in the absence of chemical substance (yeast gene YOR027W): 0.8
The level of expressed mRNA in the presence of chemical substance/The level of expressed mRNA in the absence of chemical substance (yeast gene YOR208W): 1.6
The level of expressed mRNA in the presence of chemical substance/The level of expressed mRNA in the absence of chemical substance (yeast gene YPL059W): 1.3
The level of expressed mRNA in the presence of chemical substance/The level of expressed mRNA in the absence of chemical substance (yeast gene YPL106C): 0.5
The level of expressed mRNA in the presence of chemical substance/The level of expressed mRNA in the absence of chemical substance (yeast gene YPL140C): 1.4
The level of expressed mRNA in the presence of chemical substance/The level of expressed mRNA in the absence of chemical substance (yeast gene YPL194W): 0.8
The level of expressed mRNA in the presence of chemical substance/The level of expressed mRNA in the absence of chemical substance (yeast gene YPL223C): 1.3
The level of expressed mRNA in the presence of chemical substance/The level of expressed mRNA in the absence of chemical substance (yeast gene YPL240C): 1.0
The level of expressed mRNA in the presence of chemical substance/The level of expressed mRNA in the absence of chemical substance (yeast gene YPR005C): 1.1
The level of expressed mRNA in the presence of chemical substance/The level of expressed mRNA in the absence of chemical substance (yeast gene YPR026W): 1.3
